Reference: patent US10570152B2, “Antibacterial therapeutics and prophylactics” (VYOME BIOSCIENCES PVT. LTD., priority 2015, dated 2020)

Tests used:
[1] = test system: S. aureus and S. epidermidis; assay: Emergence of resistance assay (serial passaging); assay type: cell-based, S. aureus MTCC 6908 & S. epidermidis S5-2; conditions: upto 28th generation
Method: The in vitro emergence of resistance assay was performed for the compounds as per methods reported in literatures. The resistance assay for the test compounds was done in the same manner as documented in the MIC assay using micro broth dilution method as per CLSI guidelines. For the second cycle, bacterial culture was collected from the well showing growth, containing the next lowest concentration to the MIC of test compound, and used as inoculum for the next cycle containing the same or higher range of concentrations depending on the MIC in each cycle. The same procedure was repeated in subsequent cycles for 20-30 days. […] The serial passaging was repeated for 20-30 consecutive cycles. The assay was done in duplicates in each cycle.
An increase in MIC≥8 fold compared to the MIC of the test compound in cycle 1 was considered as a significant development of resistance.

[2] = Drug release assay of compound impregnated Smart set HV; assay type: physicochemical; conditions: Smart set HV loaded; PBS buffer (pH 6.8):acetonitrile (9:1), 32° C., 7 days
Method: The drug release study with compound 2 and compound 10 were conducted in sample vial containing 1.5 ml of dissolution media i.e., PBS buffer (pH 6.8):acetonitrile (9:1). The sample was kept in incubator rotator at 32° C. at 40 rpm. The release medium was withdrawn at specified interval of time (2 hr, 4 hr, 6 hr, day 1, day 2, day 3, day 4, day 5, day 6, day 7 and replaced by fresh 1.5 ml dissolution medium each time. All the samples were kept at −20° C. till the analysis is done. The measurement of drug release was done by HPLC.

S. epidermidis S5-2 = assay: Sequential ZIB (zone of inhibition) assay for PMMA beads; assay type: cell-based, Staphylococcus epidermidis; conditions: SmartSet HV impregnated beads
Method: S. epidermidis S5-2 cells were grown in Brain Heart Infusion Agar (BHIA) at 37° C. for 24 h. 100 μl of 0.5 McFarland equal bacterial suspension was spread on BHA plates. Drug loaded beads were placed above these plates. Plates were incubated at 37° C. for 24 h. Next day, zone of inhibition (ZOI) the beads were measured following which the beads were placed on fresh BHA plates with bacterial suspension spread and this experiment was continued up to seven days. The drug release pattern was determined by compiling and analyzing the ZOI data of beads on each ZOI cycle up to seven days.

SMILES: Cc1ncc([N+](=O)[O-])n1CCN1CCN(c2cc3c(cc2F)c(=O)c(C(=O)O)c2n3C(C)S2)CC1 (stereo not drawn) [Compound 2, 6-Fluoro-1-methyl-7-(4-(2-(2-methyl-5-nitro-1H-imidazol-1-yl)ethyl)piperazin-1-yl)-4-oxo-1H,4H-[1,3]thiazeto[3,2-a]quinoline-3-carboxylic acid]
- MIC enhancement [1]: 2-4 ×MIC
- drug release from bone cement in words [2]: sustained release of active over a period of 7 days
- Sequential ZOI (S. epidermidis S5-2; Day-1): 2.2 cm
- Sequential ZOI (S. epidermidis S5-2; Day-2): 2.1 cm
- Sequential ZOI (S. epidermidis S5-2; Day-3): 1.6 cm
- Sequential ZOI (S. epidermidis S5-2; Day-4): 0.8 cm
- Sequential ZOI (S. epidermidis S5-2; Day-5): 1.6 cm
- Sequential ZOI (S. epidermidis S5-2; Day-6): 1.8 cm
- Sequential ZOI (S. epidermidis S5-2; Day-7): 1.4 cm
